Reference: patent US12648933B2, “Pharmaceutical preparation” (KOWA COMPANY, LTD., priority 2018, dated 2026)
Entries after “also recorded” stand apart in the source; their conditions may differ.

Experiment: Examination on Stability (storage at 60° C. and 80% RH for 21 days, state of sample)
Type: physicochemical
Conditions: glass vessel with lid opened (1-1 to 1-3) or closed glass bottle = tight package (1-4)
Description: Examination on Stability […] […] Pemafibrate as it was placed in a glass vessel with a lid opened and labeled as Sample 1-1. […] Ethylcellulose ([…] Co., Ltd.) was mixed with pemafibrate in a ratio of 1 part by mass to 1 part by mass of pemafibrate to obtain a mixture. […] Ethylcellulose ([…] Co., Ltd.) was mixed with pemafibrate in a ratio of 1 part by mass to 1 part by mass of pemafibrate to obtain a mixture.

With CC[C@@H](Oc1cccc(CN(CCCOc2ccc(OC)cc2)c2nc3ccccc3o2)c1)C(=O)O [Sample 1-1, (2R)-2-[3-([1,3-Benzoxazol-2-yl[3-(4-methoxyphenoxy)propyl]amino]methyl)phenoxy]butanoic acid] as the compound, how does the “State of mixture, 21 days later” value (after 21 days of storage) read?
Its value is “maintained the same state; also recorded: White powder”.

What about the “State of mixture, immediately after the start of storage” value (start of storage) of the same compound?
Its value is “White powder”.
